In ChEMBL document CHEMBL2073997, “Effect of multidrug resistance-reversing agents on transporting activity of human canalicular multispecific organic anion transporter” (Mol Pharmacol, 1999) one finds Activity, Ki and Km data, which are given here for 6 molecules.

For orientation: Ki means the equilibrium dissociation constant of an inhibitor or competing ligand from its target. High values mean a looser hold on the target, low ones a stronger hold on the target. A word on the Km: it is the concentration of substrate that gives half-maximal velocity.

Data set [1] deals with T1, ATP-binding cassette sub-family C member 2 (Homo sapiens, UniProt Q92887). The experiment in a line: TP_TRANSPORTER: increase in Vincristine intracellular accumulation (Vincristine: 1 uM, PAK-104P: 10 uM) in MRP2-expressing LLC PK1 cells. Type of data set: functional, cell-based. The following applies: pig, llc-pk1, 10 µM.
Data set [2] has as its target T1, ATP-binding cassette sub-family C member 2. The experiment in a line: TP_TRANSPORTER: inhibition of LTC4 uptake in membrane vesicles from MRP2-expressing LLC PK1 cells. Type of data set: functional, cell membranes, Membrane vesicle.
The target is the same in data set [3]. The experiment in a line: (§1) TP_TRANSPORTER: uptake in membrane vesicles from MRP2-expressing LLC PK1 cells. In kind it is functional, cell membranes, Membrane vesicle. Particulars: pig.
For data set [4] the target is unchanged. Description: TP_TRANSPORTER: increase in Vincristine intracellular accumulation (Vincristine: 1 uM, MK571: 10 uM) in MRP2-expressing LLC PK1 cells. Particulars: pig, llc-pk1, 10 µM. In kind it is functional, cell-based.
For data set [5] the target is unchanged. Description: TP_TRANSPORTER: increase in Vincristine intracellular accumulation (Vincristine: 1 uM, PSC-833: 10 uM) in MRP2-expressing LLC PK1 cells. In kind it is functional, cell-based. Particulars: pig, llc-pk1, 10 µM.
For data set [6] the target is unchanged. Description: TP_TRANSPORTER: intracellular accumulation in MRP2-expressing LLC PK1 cells. Type of data set: functional, cell-based. Particulars: pig.
Substrate in data set [7]: CCCCC/C=C\C\C=C/C=C/C=C/[C@@H](SC[C@@H](NC(=O)CC[C@H](N)C(=O)O)C(=O)NCC(=O)O)[C@@H](O)CCCC(=O)O
The data set is described as §1. In kind it is functional, cell membranes, Membrane vesicle.

Take `Cc1nc(C)c(P2(=O)O[C@H](C)C[C@@H](C)O2)c(-c2cccc([N+](=O)[O-])c2)c1C(=O)OCCN1CCN(C(c2ccccc2)c2ccccc2)CC1` (some centres undefined): the Activity result in data set [1] was “inhibitor [+]”. Moreover, in data set [2], the inhibition constant (Ki) came out at 3.7 µM.

Regarding `N[C@@H](CCC(=O)N[C@H](CSc1ccc([N+](=O)[O-])cc1[N+](=O)[O-])C(=O)NCC(=O)O)C(=O)O`, in data set [3], the Activity result was “substrate [+]”.

As to `CN(C)C(=O)CCSC(SCCC(=O)O)c1cccc(/C=C/c2ccc3ccc(Cl)cc3n2)c1` (centres undefined) [MK-571], in data set [4], the Activity result is “inhibitor [+]”. The Ki in data set [2] stood at 13.1 µM.

Take `C/C=C/C[C@@H](C)C(=O)[C@H]1C(=O)N[C@@H](C(C)C)C(=O)N(C)CC(=O)N(C)[C@@H](CC(C)C)C(=O)N[C@@H](C(C)C)C(=O)N(C)[C@@H](CC(C)C)C(=O)N[C@@H](C)C(=O)N[C@H](C)C(=O)N(C)[C@@H](CC(C)C)C(=O)N(C)[C@@H](CC(C)C)C(=O)N(C)[C@@H](C(C)C)C(=O)N1C` [VALSPODAR]: the Activity result in data set [5] was “inhibitor [+]”. In addition, in data set [2], the Ki amounted to 28.9 µM.

For the molecule `CC[C@]1(O)C[C@H]2CN(CCc3c([nH]c4ccccc34)[C@@](C(=O)OC)(c3cc4c(cc3OC)N(C=O)[C@H]3[C@@](O)(C(=O)OC)[C@H](OC(C)=O)[C@]5(CC)C=CCN6CC[C@]43[C@@H]65)C2)C1` [VINCRISTINE], the Activity entry in data set [6] is “substrate [+]”.

B1: ATP-binding cassette sub-family C member 2 (Homo sapiens) (protein)
chain: MLEKFCNSTFWNSSFLDSPEADLPLCFEQTVLVWIPLGYLWLLAPWQLLHVYKSRTKRSSTTKLYLAKQVFVGFLLILAAIELALVLTEDSGQATVPAVRYTNPSLYLGTWLLVLLIQYSRQWCVQKNSWFLSLFWILSILCGTFQFQTLIRTLLQGDNSNLAYSCLFFISYGFQILILIFSAFSENNESSNNPSSIASFLSSITYSWYDSIILKGYKRPLTLEDVWEVDEEMKTKTLVSKFETHMKRELQKARRALQRRQEKSSQQNSGARLPGLNKNQSQSQDALVLEDVEKKKKKSGTKKDVPKSWLMKALFKTFYMVLLKSFLLKLVNDIFTFVSPQLLKLLISFASDRDTYLWIGYLCAILLFTAALIQSFCLQCYFQLCFKLGVKVRTAIMASVYKKALTLSNLARKEYTVGETVNLMSVDAQKLMDVTNFMHMLWSSVLQIVLSIFFLWRELGPSVLAGVGVMVLVIPINAILSTKSKTIQVKNMKNKDKRLKIMNEILSGIKILKYFAWEPSFRDQVQNLRKKELKNLLAFSQLQCVVIFVFQLTPVLVSVVTFSVYVLVDSNNILDAQKAFTSITLFNILRFPLSMLPMMISSMLQASVSTERLEKYLGGDDLDTSAIRHDCNFDKAMQFSEASFTWEHDSEATVRDVNLDIMAGQLVAVIGPVGSGKSSLISAMLGEMENVHGHITIKGTTAYVPQQSWIQNGTIKDNILFGTEFNEKRYQQVLEACALLPDLEMLPGGDLAEIGEKGINLSGGQKQRISLARATYQNLDIYLLDDPLSAVDAHVGKHIFNKVLGPNGLLKGKTRLLVTHSMHFLPQVDEIVVLGNGTIVEKGSYSALLAKKGEFAKNLKTFLRHTGPEEEATVHDGSEEEDDDYGLISSVEEIPEDAASITMRRENSFRRTLSRSSRSNGRHLKSLRNSLKTRNVNSLKEDEELVKGQKLIKKEFIETGKVKFSIYLEYLQAIGLFSIFFIILAFVMNSVAFIGSNLWLSAWTSDSKIFNSTDYPASQRDMRVGVYGALGLAQGIFVFIAHFWSAFGFVHASNILHKQLLNNILRAPMRFFDTTPTGRIVNRFAGDISTVDDTLPQSLRSWITCFLGIISTLVMICMATPVFTIIVIPLGIIYVSVQMFYVSTSRQLRRLDSVTRSPIYSHFSETVSGLPVIRAFEHQQRFLKHNEVRIDTNQKCVFSWITSNRWLAIRLELVGNLTVFFSALMMVIYRDTLSGDTVGFVLSNALNITQTLNWLVRMTSEIETNIVAVERITEYTKVENEAPWVTDKRPPPDWPSKGKIQFNNYQVRYRPELDLVLRGITCDIGSMEKIGVVGRTGAGKSSLTNCLFRILEAAGGQIIIDGVDIASIGLHDLREKLTIIPQDPILFSGSLRMNLDPFNNYSDEEIWKALELAHLKSFVASLQLGLSHEVTEAGGNLSIGQRQLLCLGRALLRKSKILVLDEATAAVDLETDNLIQTTIQNEFAHCTVITIAHRLHTIMDSDKVMVLDNGKIIECGSPEELLQIPGPFYFMAKEAGIENVNSTKF
On to B1, for which, in data set [7], the Km is 0.26 µM.
